For series [1], the system named is Mycobacterium tuberculosis H37Rv. Briefly: Resazurin reduction growth inhibition assay, M. tuberculosis H37Rv. The settings on record: for IC50: Mycobacterium tuberculosis, H37RV, read-out: IC50 against Mycobacterium tuberculosis H37Rv; for IC50 / IC50 against Mycobacterium tuberculosis H37Rv: means ± SEM of triplicates. It is filed as cell-based.
Another series has as its system Bacillus subtilis. Briefly: Antimicrobial spectrum assay, Bacillus subtilis. It counts as cell-based. The settings on record: for IC50: Bacillus subtilis, read-out: IC50 against Bacillus subtilis.
In series [2] the test system is Mycobacterium bovis var BCG. Briefly: organism not typed. It counts as cell-based. The note with it: for IC50: read-out: IC50 against Mycobacterium bovis var BCG.
For another series, the system named is Staphylococcus aureus. Briefly: Antimicrobial spectrum assay, Staphylococcus aureus. It is filed as cell-based. The settings on record: for IC50: Staphylococcus aureus, read-out: IC50 against Staphylococcus aureus.
The next series addresses T1, Shikimate kinase (MtSK) (Mycobacterium tuberculosis, UniProt P9WPY3).
T1 construct: made in house; host or cells: E. coli
Briefly: Recombinant MtSK inhibition, ADP coupling assay. It is filed as biochemical, M. tuberculosis. The note with it: for IC50: read-out: Inhibition Concentration (IC50), MtSK (converted); for Ki: read-out: inhibition constant (Ki), MtSK (converted). The procedure: In this study, we conducted enzymatic assays to assess the inhibition of the pure compound isolated in this experiment. We also assayed control and standard drugs (rifampicin and actinomycin D). At this time, we focused on three essential enzymes in M. tuberculosis: Shikimate kinase (MtSK), phosphopantothenoylcysteine synthetase phosphopantothenoylcysteine decarboxylase (MtCoABC), and 5-enolpyruvylshikimate-3-phosphate synthase (MtEPSPS), based on docking results. All these enzymes were prepared as recombinant proteins expressed in E. coli (details not included in this study or unpublished data). For the MtSK inhibition assessment, we quantified the production of ADP in the reaction using a coupling assay, as previously described. In the case of MtCoABC and MtEPSPS inhibition, we employed a pyrophosphate assay with the BIOMOL® Green reagent (Enzo Life Sciences). All assays were conducted on a 96-well plate format, with each well having a final volume of 50 μL.

In the next series the test system is Salmonella enterica. Briefly: Antimicrobial spectrum assay, Salmonella enterica. It is filed as cell-based. The note with it: ND = no inhibition detected at maximum concentration tested (100 μg/mL).
For series [3], the system named is Mycobacterium smegmatis mc2155. Briefly: Resazurin reduction growth inhibition assay, M. smegmatis. It counts as cell-based. The settings on record: for IC50: Mycolicibacterium smegmatis, MC2155, growth inhibition, resazurin, means ± SEM of triplicates, read-out: IC50 against Mycobacterium smegmatis. On the technique in general: Alamar Blue is a resazurin reagent that responds to reducing activity.

The nature of the next series: in vitro. The note with it: human, DLD-1 colorectal adenocarcinoma cells.
The nature of series [4]: Solubility of the purified compound in solvents. The settings on record: qualitative. It counts as physicochemical.

Converted amounts (≈) assume the structure as drawn. Like-named read-outs stand apart in the source and are kept apart here. *1 amine or outer side, *2 acyl side, *3 side chain or, on linkers, in order; H or OH if unused. Where a SMILES comes first, the peptide text is derived from it. Bridges are numbered along the chain shown (N, C = ends). Roman numbers before positions name the chains, in order. [ ]: non-standard residue; d: D form. Actinocin(9to1) = Cc1c2oc3c(C)ccc(C(=O)[*:1])c3nc-2c(C(=O)[*:2])c(N)c1=O; NMeV = CN[C@H](C(=O)O)C(C)C; Sar = CNCC(=O)O

The term Ki denotes a measure of affinity in units of concentration, obtained from inhibition or displacement.

T1 sequence (P9WPY3 whole entry): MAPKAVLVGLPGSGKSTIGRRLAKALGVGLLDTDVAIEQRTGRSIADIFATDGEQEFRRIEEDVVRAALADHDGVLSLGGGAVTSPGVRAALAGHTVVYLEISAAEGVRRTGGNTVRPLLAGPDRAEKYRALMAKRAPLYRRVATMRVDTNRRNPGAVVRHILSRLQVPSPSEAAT
Procedure for in vitro: The cytotoxicity assay involved the evaluation of cytotoxic effects on human cells using the colorectal adenocarcinoma cell line (DLD-1). The DLD-1 cells were cultured in a 75 cm^2 flask (Violamo) at 37 °C, with Roswell Park Memorial Institute (RPMI 1640) medium supplemented with 10 % FBS, 2.1 mM stable Glutamine, and 2.0 g/L NaHCO3. DLD-1 cells in a semiconfluent state were detached from the flask by incubating them with 5 mL of RPMI 1640 containing 0.25 % trypsin-EDTA to conduct the assay. After detachment, the DLD-1 cells were resuspended in RPMI 1640 supplemented with FBS, L-glutamine, and NaHCO3, and their cell viability was assessed using 0.4 % Trypan blue on a hemocytometer. Approximately 100 μL of the cell suspension, containing 3,000 cells, was added to each well of a 96-well clear-bottom plate. Cells were dispensed into the wells containing 2 μL of compounds dissolved in 50 % DMSO (final compound concentrations: 100, 20, 4, 0.8, and 0.2 μM and final DMSO concentration was 1 % each well). The culture plate was then incubated at 37 °C under 5 % CO2. Following 48 h of cultivation, 10 μL of Cell Counting Kit 8 (Dojindo, Japan) was added to each well, and the plates were further incubated for 2 h to examine cell growth and survival. The absorbance at 450 nm wavelength was measured using a microplate reader. The assay was conducted in triplicate for each dilution.

Take `Cc1c2oc3c(C)ccc(C(=O)N[C@@H]4C(=O)N[C@H](C(C)C)C(=O)N5CCC[C@H]5C(=O)N(C)CC(=O)N(C)[C@@H](C(C)C)C(=O)O[C@@H]4C)c3nc-2c(C(=O)N[C@@H]2C(=O)N[C@H](C(C)C)C(=O)N3CCC[C@H]3C(=O)N(C)CC(=O)N(C)[C@@H](C(C)C)C(=O)O[C@@H]2C)c(N)c1=O` [Actinomycin D, actinomycin D] (I: T[dV]P[Sar][NMeV] / II: T[dV]P[Sar][NMeV]; ester I:1-I:C, II:1-II:C; linker I:N-II:N via Actinocin(9to1)): the IC50 in series [1] ([…]) is 0.8 ± 0.12 µg/mL (≈ 0.637 µM); on Shikimate kinase (MtSK), 71.6 µM; in the series on Salmonella enterica (Salmonella enterica, read-out: IC50 against Salmonella enterica), 14.7 µg/mL (≈ 11.7 µM). Further, in the series with Bacillus subtilis, the “IC50 against Bacillus subtilis” value is less than 0.3 µg/mL. Further, the “IC50 against Mycobacterium bovis var BCG” value in series [2] came to 0.8 ± 0.09 µg/mL (≈ 0.637 µM). Also, the “IC50 against Staphylococcus aureus” value with Staphylococcus aureus was less than 0.3 µg/mL. In addition, the Ki on Shikimate kinase (MtSK) is 94.9 µM. The “IC50 against Salmonella enterica” value with Salmonella enterica was determined as 14.65 ± 1.22 µg/mL (≈ 11.7 µM). Further, in [3], the “IC50 against Mycobacterium smegmatis” value turned out to be 0.78 ± 0.21 µg/mL (≈ 0.621 µM).

Molecule `Cc1c2oc3c(C)ccc(C(=O)N[C@@H]4C(=O)N[C@H](C(C)C)C(=O)N5CCC[C@H]5C(=O)N(C)CC(=O)N(C)[C@@H](C(C)C)C(=O)O[C@@H]4C)c3nc-2c(C(=O)N[C@@H]2C(=O)N[C@H](C(C)C)C(=O)N3CCC[C@H]3C(=O)N(C)CC(=O)N(C)[C@@H](C(C)C)C(=O)O[C@@H]2C)c(N)c1=O` [F5(23), actinomycin D] (I: T[dV]P[Sar][NMeV] / II: T[dV]P[Sar][NMeV]; ester I:1-I:C, II:1-II:C; linker I:N-II:N via Actinocin(9to1)) displayed an IC50 at 48 h in the series “in vitro” of more than 80 µg/mL. Besides, in series [1], the “increase in potency against M. tuberculosis compared to actinomycin D” value was found to be 10 fold. Further, the IC50 in series [1] (growth inhibition, resazurin) was 0.07 ± 0.009 µg/mL (≈ 0.0558 µM); in the series on Bacillus subtilis, less than 0.3 µg/mL; in series [2], 0.02 ± 0.01 µg/mL (≈ 0.0159 µM); in the series with Staphylococcus aureus it was less than 0.3 µg/mL; at Shikimate kinase (MtSK) (recombinant enzyme) it was 32.8 µM; in series [3], 0.74 ± 0.03 µg/mL (≈ 0.589 µM). In [1] (greater effect than rifampicin), the “potency against M. tuberculosis compared to rifampicin” value is approximately 10 fold. Also, the solubility in solvents result in series [4] is “soluble in dichloromethane, chloroform, methanol, ethyl acetate and DMSO”. For the same molecule, in [2], the “increase in potency against M. bovis compared to actinomycin D” value is recorded as 10 fold. Moreover, the Ki at Shikimate kinase (MtSK) (recombinant enzyme) is 46.2 µM. Moreover, in the series with Salmonella enterica, the “IC50 against Salmonella enterica” value was “no inhibitory effect”.

For the molecule `CO[C@H]1/C=C/O[C@@]2(C)Oc3c(C)c(O)c4c(O)c(c(/C=N/N5CCN(C)CC5)c(O)c4c3C2=O)NC(=O)/C(C)=C\C=C\[C@H](C)[C@H](O)[C@@H](C)[C@@H](O)[C@@H](C)[C@H](OC(C)=O)[C@@H]1C` [Rifampicin], the “IC50 against Mycobacterium tuberculosis H37Rv” value in series [1] (growth inhibition, resazurin) is less than 0.01 µg/mL; in [1] (growth inhibition, resazurin, listed as rifampicin), 0.8 ± 0.12 µg/mL (≈ 0.972 µM). Moreover, the IC50 in the series on Bacillus subtilis is less than 0.3 µg/mL; in [2] it was less than 0.03 µg/mL; with Staphylococcus aureus, less than 0.3 µg/mL; in series [3], 0.48 ± 0.07 µg/mL (≈ 0.583 µM).

(Values after publication PMC11336835 (Heliyon, 2024).)
